≈ marks a conversion by molar mass, not a printed value. Read-outs that look alike come from different tables or passages of the source.
How the values were obtained:
CHI Log D procedure = assay type: physicochemical; details: for chromatographic logD: pH 7.4, CHI Log D; for CHI Log D: pH 7.4
[1] = target: T1, full-length beta-Catenin (Uniprot ID P35222) (Homo sapiens, UniProt P35222); experiment: Fluorescence polarization IC50 (beta-catenin / 5FAM-TCF4 10-53 competition); assay type: binding
T1 construct: 10 nM full-length beta-Catenin (Uniprot ID P35222)
T1 sequence (P35222 1-781): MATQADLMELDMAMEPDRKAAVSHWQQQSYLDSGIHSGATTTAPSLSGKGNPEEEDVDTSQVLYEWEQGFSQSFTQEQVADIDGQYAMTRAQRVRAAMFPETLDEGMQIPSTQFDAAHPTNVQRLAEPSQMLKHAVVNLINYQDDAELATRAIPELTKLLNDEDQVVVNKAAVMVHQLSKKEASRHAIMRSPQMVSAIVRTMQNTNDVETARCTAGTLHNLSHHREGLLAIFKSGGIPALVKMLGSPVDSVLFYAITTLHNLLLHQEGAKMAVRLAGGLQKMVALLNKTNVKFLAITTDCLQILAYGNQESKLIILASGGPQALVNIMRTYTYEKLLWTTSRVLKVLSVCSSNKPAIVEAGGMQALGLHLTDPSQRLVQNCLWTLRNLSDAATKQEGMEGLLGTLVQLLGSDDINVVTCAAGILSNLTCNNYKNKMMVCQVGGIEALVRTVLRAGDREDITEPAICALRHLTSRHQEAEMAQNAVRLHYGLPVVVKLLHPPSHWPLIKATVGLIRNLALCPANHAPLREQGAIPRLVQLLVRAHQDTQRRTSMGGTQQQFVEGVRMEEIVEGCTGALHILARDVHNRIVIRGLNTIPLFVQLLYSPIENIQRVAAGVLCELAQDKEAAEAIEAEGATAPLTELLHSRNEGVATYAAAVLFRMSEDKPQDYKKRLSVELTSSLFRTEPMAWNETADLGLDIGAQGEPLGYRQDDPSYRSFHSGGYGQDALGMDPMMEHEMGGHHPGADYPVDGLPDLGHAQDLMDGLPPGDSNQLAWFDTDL

Solubility in PBS = assay type: physicochemical
Procedure, shortened: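 HPLC quantitation of peptide remaining in the PBS supernatant after ultracentrifugation, referenced to a 50 μM solution in DMSO.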

[2] = target: T2, beta-catenin/TCF4 engagement (Homo sapiens, UniProt P35222); experiment: Nano-BRET target engagement assay (B-cat-Halo & TCF4-Luc in HEK293 cells); assay type: cell-based; details: read-out: NanoBRET Abs IC50
T2 construct: expressed in transfected cells; host or cells: HEK293
T2 sequence (P35222 1-781): T1 sequence (P35222 1-781)

[3] = fluorescence polarization, read-out: beta-Catenin FP IC50

With `CC(=O)N1CCC[C@]12CC=CCCCC1(CCCC=CCCCOC(=O)N3CC[C@@](C(=O)N[C@@H](Cc4ccccc4Cl)C(=O)N[C@@H](Cc4csc5ccccc45)C(=O)N[C@@H](CCC(N)=O)C(N)=O)(C3)NC(=O)[C@H](CO)NC(=O)[C@H](Cc3ccccc3)NC(=O)[C@H](C)NC(=O)[C@H](C)NC(=O)[C@H](CC(N)=O)NC(=O)[C@H](CC(=O)O)NC1=O)NC(=O)[C@H](CC(C)(C)C)NC(=O)[C@H](CC(=O)O)NC2=O` (stereo partly drawn) [I-1018, Ac-PL3-Asp-Npg-B5-Asp-Asn-Ala-Ala-Phe-Ser-PyrS2-2C1F-BztA-Gln-NH2] the chromatographic logD (CHI Log D procedure) was 2.35, the IC50 ([1]; read-out: beta-Catenin FP IC50) was 26 nM and the “Solubility” value (Solubility in PBS) was 10 µM (≈ 19.2 µg/mL). For the same compound, the IC50 [2] was 25800 nM.

In the case of `CC(=O)N1CCC[C@]12CC=CCCCC1(CCCC=CCCCCOC(=O)N3CC[C@@](C(=O)N[C@@H](Cc4ccsc4)C(=O)N[C@@H](Cc4csc5ccccc45)C(=O)N[C@@H](Cc4c[nH]cn4)C(=O)N[C@H](C)C(N)=O)(C3)NC(=O)[C@H](CC(N)=O)NC(=O)[C@H](Cc3ccccc3)NC(=O)[C@H](C)NC(=O)[C@H](C)NC(=O)[C@H](CC(=O)O)NC(=O)[C@H](CC(=O)O)NC1=O)NC(=O)[C@H](CC(C)(C)C)NC(=O)[C@H](CC(=O)O)NC2=O` (stereo partly drawn) [I-833, Ac-PL3-Asp-Npg-B5-Asp-Asp-Ala-Ala-Phe-Asn-PyrS3-3Thi-BztA-His-dAla-NH2], the “CHI Log D” value (CHI Log D procedure) is reported as 2.146, the IC50 ([1]; fluorescence polarization, beta-catenin, read-out: FP EC50) is reported as 8 nM and the IC50 ([1]; read-out: beta-Catenin FP IC50) is reported as 8 nM. For the same compound, the “Solubility” value (Solubility in PBS) was 50 µM (≈ 101 µg/mL) and the IC50 [2] was 48100 nM.

Work on `COc1ccccc1C[C@H](NC(=O)[C@]12CCN(C1)C(=O)OCCCC=CCCCC1(CCCC=CC[C@]3(CCCN3C(C)=O)C(=O)N[C@@H](CC(=O)O)C(=O)N[C@@H](CC(C)(C)C)C(=O)N1)C(=O)N[C@@H](CC(=O)O)C(=O)N[C@@H](CC(=O)O)C(=O)N[C@@H](C)C(=O)N[C@@H](C)C(=O)N[C@@H](Cc1ccccc1)C(=O)N[C@@H](CO)C(=O)N2)C(=O)N[C@@H](Cc1csc2ccccc12)C(=O)N[C@@H](CO)C(N)=O` (stereo partly drawn) [I-1103, Ac-PL3-Asp-Npg-B5-Asp-Asp-Ala-Ala-Phe-Ser-PyrS2-2OMeF-BztA-Ser-NH2] yielded a chromatographic logD (CHI Log D procedure) of 2.18, an IC50 ([1]; read-out: beta-Catenin FP IC50) of 15 nM and a Solubility (Solubility in PBS; Solubility (uM)) of 46 µM (≈ 86.2 µg/mL). For the same compound, the IC50 [2] was 16700 nM.

In the case of `CC(=O)N1CCC[C@]12CC=CCCCC1(CCCC=CCCCCCC[C@@](C)(C(=O)N[C@@H](Cc3ccccc3)C(=O)N[C@@H](Cc3csc4ccccc34)C(=O)N[C@H](C(N)=O)[C@@H](C)O)NC(=O)[C@H](CC(N)=O)NC(=O)[C@H](Cc3ccccc3)NC(=O)[C@H](C)NC(=O)[C@H](C)NC(=O)[C@H](CCC(=O)O)NC(=O)[C@H](CC(=O)O)NC1=O)NC(=O)[C@H](CC(C)C)NC(=O)[C@H](CC(=O)O)NC2=O` (stereo partly drawn) [I-749, Ac-PL3-Asp-Leu-B5-Asp-Glu-Ala-Ala-Phe-Asn-S8-Phe-BztA-Thr-NH2], the “CHI Log D” value (CHI Log D procedure) is reported as 2.472, the IC50 [1, 3] is reported as 40 nM and the IC50 ([1]; read-out: FP EC50) is reported as 40 nM. For the same compound, the “Solubility” value (Solubility in PBS) was 45 µM (≈ 82.9 µg/mL) and the IC50 ([2]; absolute IC50) was 9000 nM.

Compound `CC(=O)N1CCC[C@]12CC=CCCCC1(CCCC=CCCCCCC[C@@](C)(C(=O)N[C@@H](Cc3ccccc3)C(=O)N[C@@H](Cc3csc4ccccc34)C(=O)N[C@@H](CCC(N)=O)C(N)=O)NC(=O)[C@H](CCC(N)=O)NC(=O)[C@H](Cc3ccccc3)NC(=O)[C@H](C)NC(=O)[C@H](C)NC(=O)[C@H](CCC(=O)O)NC(=O)[C@H](CC(=O)O)NC1=O)NC(=O)[C@H](CCC(C)C)NC(=O)[C@H](CC(=O)O)NC2=O` (stereo partly drawn) [I-545, Ac-PL3-Asp-hLeu-B5-Asp-Glu-Ala-Ala-Phe-Gln-S8-Phe-BztA-Gln-NH2] has a chromatographic logD (CHI Log D procedure) of 2.57, an IC50 [1, 3] of 21 nM and a Solubility (Solubility in PBS; Solubility (uM)) of 46 µM (≈ 87.3 µg/mL). For the same compound, the IC50 ([2]; absolute IC50) was 3500 nM.

Work on `CC(=O)N1CCC[C@]12CC=CCCCC1(CCCC=CCCCOC(=O)N3CC[C@@](C(=O)N[C@@H](Cc4cccc5ccccc45)C(=O)N[C@@H](Cc4csc5ccccc45)C(=O)N[C@@H](Cc4c[nH]cn4)C(N)=O)(C3)NC(=O)[C@H](CC(N)=O)NC(=O)[C@H](Cc3ccccc3)NC(=O)[C@H](C)NC(=O)[C@H](C)NC(=O)[C@H](CC(=O)O)NC(=O)[C@H](CC(=O)O)NC1=O)NC(=O)[C@H](CC(C)(C)C)NC(=O)[C@H](CC(=O)O)NC2=O` (stereo partly drawn) [I-794, Ac-PL3-Asp-Npg-B5-Asp-Asp-Ala-Ala-Phe-Asn-PyrS2-1NapA-BztA-His-NH2] yielded a chromatographic logD (CHI Log D procedure) of 2.38, an IC50 ([1]; read-out: beta-Catenin FP IC50) of 19 nM and a Solubility (Solubility in PBS; Solubility (uM)) of 40 µM (≈ 78.8 µg/mL). The IC50 [2] was 26400 nM.

Source: US20240116985A1, “STAPLED PEPTIDES AND METHODS THEREOF” (priority 2020, published 2024)
